Source: patent US20230049952A1, “METHODS AND COMPOUNDS FOR RESTORING MUTANT P53 FUNCTION” (PMV Pharmaceuticals, Inc., priority 2020, published 2023)
Read-outs that look alike come from different tables or passages of the source. One block for each compound: values may come before it.

Tests used:
CYP1A2 = CYP1A2 (Homo sapiens, UniProt P05177); details: 20 min, 50 μM, pH 7.4
CYP2D6 [1] = biological target: T1, CYP2D6 (Homo sapiens, UniProt P10635); details: both, microsomes, 30 min, 0.123 µM, pH 7.4
CYP2D6 [2] = biological target: T1, CYP2D6; assay: in vitro; details: both, microsomes, pH 7.4, % of Control Enzyme Activity
OAT3 [3] = biological target: T2, OAT3 (Homo sapiens, UniProt Q8TCC7); assay: in vitro; details: HEK293 cells transfected with OAT3, probe furosemide (5 µM)
OAT3 [4] = biological target: T2, OAT3; assay: uptake transporter inhibition assessment, transfected HEK293; details: inhibitor 100 μM
MATE2K [5] = biological target: T3, MATE2K (Homo sapiens, UniProt Q86VL8); assay: in vitro; details: HEK293 cells transfected with MATE2K, probe metformin (50 µM)
MATE2K [6] = biological target: T3, MATE2K; assay: uptake transporter inhibition assessment, transfected HEK293; details: inhibitor 1 μM
in vitro [7] = details: for Analyte Peak/IS Peak Ares (Mean), T60-blood / Analyte Peak/IS Peak Ares (Mean), T60-plasma: 60 min; for Analyte Peak/IS Peak Ares (Mean), T60-blood / Analyte Peak/IS Peak Ares (Mean), T60-plasma / Analyte Peak/IS Peak Ares (Mean), T0: 2 μM; for Analyte Peak/IS Peak Ares (Mean), T0: 0 min
Description: All working solutions were freshly prepared similarly as described for the test article working solution.
Assay for determining Blood to plasma ratio: Pooled male CD-1 mouse, Sprague-Dawley rat, beagle dog and cynomolgus monkey plasma, and mixed gender human blood with EDTAK2 as anticoagulant were stored on wet ice and used the same day. […] After mixing thoroughly, 0.6 mL of spiked blood was transferred to a 96-well plate in triplicate. Concurrently, control compounds were spiked into each species blood in the same fashion to generate the final concentration of 2.0 μM.
The rest of the spiked blood samples were immediately placed into a humidified incubator with 5% CO2 at 37° C., with constant swiveling at 500 rpm for 60 min on a platform shaker. […] The T60-plasma samples for analysis were obtained by taking 50 μL of plasma from each well, mixed with 50 μL of blank blood and 100 μL of water, followed by addition of 600 μL stop solution. […] All the T0, T60-blood and T60-plasma samples were shaken vigorously at 800 rpm for 30 min followed by the centrifugation at 3220×g at 20° C. for 20 min. 100 μL aliquot of supernatant was diluted with 100 μL of water and mixed well for LC-MS/MS analysis.
Measurement of Hematocrit: The hematocrit (the volume percentage of erythrocytes in blood) was determined in triplicate for each species by centrifuging the blood samples with a HAEMATOKRIT 200 at 9440×g for 5 min.
Data analysis: The ratio of compound concentrations in whole blood over plasma (KB/P) and % Recovery in blood were calculated by the following equations: KB/P=[…]([T60-blood]/[T60-plasma]), where [T60-blood] is the peak area ratios of analyte/internal standard in whole blood sample at 60 min; [T60-plasma] is the peak area ratios of analyte/internal standard in plasma sample at 60 min; [T0-blood] is the peak area ratios of analyte/internal standard in whole blood sample at time zero.

CYP2C9 = CYP2C9 (Homo sapiens, UniProt P11712); details: 20 min, 6 μM, pH 7.4
P-GP [8] = biological target: T4, P-GP (Homo sapiens, UniProt P08183); details: Caco-2, 120 min, 10 µM, pH 7.4
P-GP [9] = biological target: T4, P-GP; assay: in vitro; details: Caco-2, pH 7.4
P-GP [10] = biological target: T4, P-GP; assay: in vitro; details: dog, MDCK-MDR1, pH 7.4
P-GP [11] = biological target: T4, P-GP; assay: in vitro
in vitro [12] = details: human, Caco-2
P-gp [13] = assay: in vitro; details: human, Caco-2, pH 7.4
P-gp (MDR1) = assay: in vitro; details: dog, MDCK-MDR1
P-gp [14] = assay: in vitro; details: dog, MDCK-MDR1, pH 7.4
P-GP [15] = biological target: T4, P-GP; assay: P-GP substrate assessment, Caco-2 monolayers
P-GP [16] = biological target: T4, P-GP; assay: P-GP substrate assessment, MDR1-MDCK monolayers; details: for Recovery (%): B-to-A
[17] = cell batch quality control, BCRP-MDCK monolayers; type: in vitro ADME; details: dog; BCRP-MDCK cell batch QC; passage 23
Description: BCRP-MDCK cell monolayers were prepared at Absorption Systems. […] Each determination was performed in duplicate.

in vitro [18] = details: dog, MDCK-MDR1, pH 7.4
[19] = CYP Control (negative control without CYP enzymes) in hrCYP reaction phenotyping; details: S-mephenytoin 20 μM, metabolite 4′ - OH Mephenytoin
MATE1 [20] = biological target: T5, MATE1 (Homo sapiens, UniProt Q96FL8); assay: in vitro; details: HEK293 cells transfected with MATE1, probe metformin (50 µM)
MATE1 [21] = biological target: T5, MATE1; assay: uptake transporter inhibition assessment, transfected HEK293; details: inhibitor 100 μM

T4 sequence (P08183 whole entry): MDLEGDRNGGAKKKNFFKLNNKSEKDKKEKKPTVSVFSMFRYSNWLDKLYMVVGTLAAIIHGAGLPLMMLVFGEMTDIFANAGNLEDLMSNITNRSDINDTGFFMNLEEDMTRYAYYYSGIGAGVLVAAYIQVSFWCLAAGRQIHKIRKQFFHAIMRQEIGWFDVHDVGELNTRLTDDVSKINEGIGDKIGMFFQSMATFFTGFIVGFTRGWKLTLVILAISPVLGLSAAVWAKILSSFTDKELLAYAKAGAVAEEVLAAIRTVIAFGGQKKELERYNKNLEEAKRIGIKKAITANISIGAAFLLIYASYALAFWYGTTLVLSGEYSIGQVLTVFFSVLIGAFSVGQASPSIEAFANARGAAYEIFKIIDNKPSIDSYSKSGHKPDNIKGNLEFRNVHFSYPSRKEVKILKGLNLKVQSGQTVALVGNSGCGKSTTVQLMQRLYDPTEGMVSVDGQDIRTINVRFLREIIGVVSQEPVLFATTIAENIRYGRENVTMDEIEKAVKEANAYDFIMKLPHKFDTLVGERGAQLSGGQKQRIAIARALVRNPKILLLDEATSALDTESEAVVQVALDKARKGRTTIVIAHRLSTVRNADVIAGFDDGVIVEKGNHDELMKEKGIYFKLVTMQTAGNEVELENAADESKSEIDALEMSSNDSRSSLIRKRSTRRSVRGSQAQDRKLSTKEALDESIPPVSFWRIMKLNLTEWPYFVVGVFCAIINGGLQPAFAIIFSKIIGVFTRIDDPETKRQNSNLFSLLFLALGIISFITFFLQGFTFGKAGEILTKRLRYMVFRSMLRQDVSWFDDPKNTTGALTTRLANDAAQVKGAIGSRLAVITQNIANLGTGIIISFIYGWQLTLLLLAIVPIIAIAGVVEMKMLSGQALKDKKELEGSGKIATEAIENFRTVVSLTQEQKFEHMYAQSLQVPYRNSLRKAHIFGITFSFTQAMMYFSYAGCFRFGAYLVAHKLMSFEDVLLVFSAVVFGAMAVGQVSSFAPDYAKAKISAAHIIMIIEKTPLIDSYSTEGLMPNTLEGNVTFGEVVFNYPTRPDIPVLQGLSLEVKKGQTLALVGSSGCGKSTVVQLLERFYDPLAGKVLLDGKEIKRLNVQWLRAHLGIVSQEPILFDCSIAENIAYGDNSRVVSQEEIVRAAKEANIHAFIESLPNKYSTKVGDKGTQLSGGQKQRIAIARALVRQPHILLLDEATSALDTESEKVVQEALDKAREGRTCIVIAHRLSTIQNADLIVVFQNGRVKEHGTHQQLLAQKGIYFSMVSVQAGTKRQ
T2 sequence (Q8TCC7 whole entry): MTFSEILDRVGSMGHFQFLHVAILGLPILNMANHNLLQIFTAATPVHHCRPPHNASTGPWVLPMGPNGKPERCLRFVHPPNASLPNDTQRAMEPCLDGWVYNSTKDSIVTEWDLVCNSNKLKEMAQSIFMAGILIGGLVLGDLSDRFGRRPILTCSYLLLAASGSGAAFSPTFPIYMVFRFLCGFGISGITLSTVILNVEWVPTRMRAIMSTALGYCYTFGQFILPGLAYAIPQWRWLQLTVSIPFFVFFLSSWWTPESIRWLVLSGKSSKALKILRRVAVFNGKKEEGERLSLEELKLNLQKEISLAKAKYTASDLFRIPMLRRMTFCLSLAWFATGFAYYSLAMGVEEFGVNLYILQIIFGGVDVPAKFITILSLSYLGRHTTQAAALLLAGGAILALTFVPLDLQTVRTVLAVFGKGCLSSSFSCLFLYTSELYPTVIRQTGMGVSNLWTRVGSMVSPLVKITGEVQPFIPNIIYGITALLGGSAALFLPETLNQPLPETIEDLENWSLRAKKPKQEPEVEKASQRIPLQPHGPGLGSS
Chain of CYP1A2 (P05177 whole entry): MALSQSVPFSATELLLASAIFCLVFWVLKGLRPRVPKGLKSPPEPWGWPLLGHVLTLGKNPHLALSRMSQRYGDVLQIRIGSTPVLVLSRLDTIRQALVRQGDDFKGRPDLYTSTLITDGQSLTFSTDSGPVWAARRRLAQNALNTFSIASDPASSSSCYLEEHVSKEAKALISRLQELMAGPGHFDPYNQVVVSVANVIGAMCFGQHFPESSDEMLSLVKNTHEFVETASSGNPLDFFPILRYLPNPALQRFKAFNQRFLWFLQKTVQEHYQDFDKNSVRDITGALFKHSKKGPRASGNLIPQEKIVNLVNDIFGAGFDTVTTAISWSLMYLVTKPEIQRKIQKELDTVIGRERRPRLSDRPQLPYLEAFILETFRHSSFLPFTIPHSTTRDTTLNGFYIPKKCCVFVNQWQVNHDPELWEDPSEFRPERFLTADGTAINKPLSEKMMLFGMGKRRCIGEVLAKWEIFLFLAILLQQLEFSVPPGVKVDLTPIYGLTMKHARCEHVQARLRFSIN
T1 sequence (P10635 whole entry): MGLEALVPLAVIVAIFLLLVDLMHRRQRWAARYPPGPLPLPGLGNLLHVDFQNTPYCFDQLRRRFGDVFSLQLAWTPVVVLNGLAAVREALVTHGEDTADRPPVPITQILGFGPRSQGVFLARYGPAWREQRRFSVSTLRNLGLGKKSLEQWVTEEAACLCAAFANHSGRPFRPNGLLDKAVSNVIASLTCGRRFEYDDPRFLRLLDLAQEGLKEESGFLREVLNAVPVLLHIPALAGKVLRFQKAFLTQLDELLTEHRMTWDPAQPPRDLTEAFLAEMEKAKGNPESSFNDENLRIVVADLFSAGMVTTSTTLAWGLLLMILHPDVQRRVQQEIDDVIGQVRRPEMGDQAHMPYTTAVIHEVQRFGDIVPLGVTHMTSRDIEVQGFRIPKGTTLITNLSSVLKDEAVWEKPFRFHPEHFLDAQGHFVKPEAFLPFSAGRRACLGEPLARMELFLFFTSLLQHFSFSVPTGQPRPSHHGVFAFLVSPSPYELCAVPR
Chain of CYP2C9 (P11712 whole entry): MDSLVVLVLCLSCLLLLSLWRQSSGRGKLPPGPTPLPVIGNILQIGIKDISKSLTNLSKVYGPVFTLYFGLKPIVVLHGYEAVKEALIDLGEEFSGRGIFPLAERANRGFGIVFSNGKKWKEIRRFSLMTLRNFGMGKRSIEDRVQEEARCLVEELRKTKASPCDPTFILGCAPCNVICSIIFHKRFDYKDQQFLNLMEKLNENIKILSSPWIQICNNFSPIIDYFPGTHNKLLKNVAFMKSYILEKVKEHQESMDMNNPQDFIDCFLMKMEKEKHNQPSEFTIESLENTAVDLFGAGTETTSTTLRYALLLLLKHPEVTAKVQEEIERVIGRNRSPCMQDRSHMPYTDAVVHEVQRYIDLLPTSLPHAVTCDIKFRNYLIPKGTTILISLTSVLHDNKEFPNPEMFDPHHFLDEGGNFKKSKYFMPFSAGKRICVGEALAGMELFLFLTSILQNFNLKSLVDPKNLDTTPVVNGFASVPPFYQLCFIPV
T5 sequence (Q96FL8 whole entry): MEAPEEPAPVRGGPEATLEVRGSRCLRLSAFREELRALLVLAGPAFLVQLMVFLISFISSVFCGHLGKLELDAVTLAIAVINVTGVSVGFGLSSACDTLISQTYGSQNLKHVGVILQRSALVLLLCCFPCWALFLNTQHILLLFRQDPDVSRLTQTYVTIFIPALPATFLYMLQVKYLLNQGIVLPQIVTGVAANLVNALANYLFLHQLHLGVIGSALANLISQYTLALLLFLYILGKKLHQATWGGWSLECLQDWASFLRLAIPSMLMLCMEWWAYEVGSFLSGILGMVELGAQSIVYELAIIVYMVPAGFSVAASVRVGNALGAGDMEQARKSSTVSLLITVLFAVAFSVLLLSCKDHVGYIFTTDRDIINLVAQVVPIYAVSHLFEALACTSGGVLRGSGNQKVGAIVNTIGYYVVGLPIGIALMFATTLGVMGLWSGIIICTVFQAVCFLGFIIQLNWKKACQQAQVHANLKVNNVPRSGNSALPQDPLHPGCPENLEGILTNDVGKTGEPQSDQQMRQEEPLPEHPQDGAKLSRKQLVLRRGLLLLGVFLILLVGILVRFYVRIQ
T3 sequence (Q86VL8 1-566 isoform Q86VL8-3): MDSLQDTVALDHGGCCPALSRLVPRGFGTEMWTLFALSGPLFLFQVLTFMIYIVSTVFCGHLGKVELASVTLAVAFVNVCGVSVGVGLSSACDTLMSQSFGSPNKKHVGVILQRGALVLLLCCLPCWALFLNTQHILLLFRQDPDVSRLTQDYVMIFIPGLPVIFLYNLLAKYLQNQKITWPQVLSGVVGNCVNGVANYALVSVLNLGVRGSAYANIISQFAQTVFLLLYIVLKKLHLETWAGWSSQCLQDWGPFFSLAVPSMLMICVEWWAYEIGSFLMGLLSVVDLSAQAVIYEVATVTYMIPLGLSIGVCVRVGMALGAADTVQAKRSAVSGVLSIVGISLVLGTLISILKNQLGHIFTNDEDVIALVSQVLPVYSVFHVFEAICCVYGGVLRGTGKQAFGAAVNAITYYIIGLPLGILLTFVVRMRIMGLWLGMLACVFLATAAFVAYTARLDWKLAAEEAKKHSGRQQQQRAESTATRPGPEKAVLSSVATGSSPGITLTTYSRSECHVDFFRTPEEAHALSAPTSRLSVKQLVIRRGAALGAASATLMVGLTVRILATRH

inhibition at 100 µM (OAT3 [3]): 72%
SMILES: CCCN(CCC)S(=O)(=O)c1ccc(C(=O)O)cc1 [Probenecid]
Inhibition Potential Classification (OAT3 [4]): Positive (Percent inhibition≥50%: Positive)

Papp [17]: 20.1 ×10⁻⁶ cm/s | Papp at 120 min (in vitro [18]): 20.3 ×10⁻⁶ cm/s
SMILES: CC(C)NCC(O)COc1cccc2ccccc12 (stereo not drawn) [Propranolol]

inhibition at 100 µM (MATE1 [20]): 99.2%
SMILES: CN/C(=N/CCSCc1nc[nH]c1C)NC#N [Cimetidine]
Inhibition Potential Classification (MATE1 [21]): Positive (Percent inhibition≥50%: Positive)

The remaining lines, values behind:

SMILES: CCOc1ccc(NC(C)=O)cc1 [Phenacetin]
Formation Rate (CYP1A2): 1819 pmol metabolite/min/mg Supersome protein | Measured Metabolite (CYP1A2): 3.71 µM

SMILES: Fc1ccc([C@@H]2CCNC[C@H]2COc2ccc3c(c2)OCO3)cc1 [Paroxetine]
% of Control Enzyme Activity (CYP2D6 [1]): 79.1% | activity at 30 min, 0.123 µM (CYP2D6 [2]): 95.8%

SMILES: CCc1nc(N)nc(N)c1-c1ccc(Cl)cc1 [Pyrimethamine]
inhibition at 1 µM (MATE2K [5]): 93.3% | Inhibition Potential Classification (MATE2K [6]): Positive (Percent inhibition≥50%: Positive)

SMILES: O=C(O)Cc1ccccc1Nc1c(Cl)cccc1Cl [Diclofenac]
recovery at 60 min, 2 μM (in vitro [7]; both, human): 91.2 ± 4.43% | Analyte Peak/IS Peak Ares (Mean), T60-blood (in vitro [7]; both, human): 0.311 | Analyte Peak/IS Peak Ares (Mean), T60-plasma (in vitro [7]; both, human): 0.473 | recovery at 60 min, 2 μM (in vitro [7]; male, CD-1, mouse): 100 ± 6.79% | Analyte Peak/IS Peak Ares (Mean), T60-blood (in vitro [7]; male, CD-1, mouse): 0.365 | Analyte Peak/IS Peak Ares (Mean), T60-plasma (in vitro [7]; male, CD-1, mouse): 0.501 | recovery at 60 min, 2 μM (in vitro [7]; male, Sprague-Dawley, rat): 100 ± 3.45% | Analyte Peak/IS Peak Ares (Mean), T0 (in vitro [7]; male, Sprague-Dawley, rat): 0.330 | Analyte Peak/IS Peak Ares (Mean), T60-blood (in vitro [7]; male, Sprague-Dawley, rat): 0.331 | Analyte Peak/IS Peak Ares (Mean), T60-plasma (in vitro [7]; male, Sprague-Dawley, rat): 0.480 | recovery at 60 min, 2 μM (in vitro [7]; male, beagle, dog): 104 ± 1.36% | Analyte Peak/IS Peak Ares (Mean), T0 (in vitro [7]; male, beagle, dog): 0.301 | Analyte Peak/IS Peak Ares (Mean), T60-blood (in vitro [7]; male, beagle, dog): 0.313 | Analyte Peak/IS Peak Ares (Mean), T60-plasma (in vitro [7]; male, beagle, dog): 0.484 | recovery at 60 min, 2 μM (in vitro [7]; male, cynomolgus monkey): 101 ± 8.23% | Analyte Peak/IS Peak Ares (Mean), T0 (in vitro [7]; male, cynomolgus monkey): 0.314 | Analyte Peak/IS Peak Ares (Mean), T60-blood (in vitro [7]; male, cynomolgus monkey): 0.318 | Analyte Peak/IS Peak Ares (Mean), T60-plasma (in vitro [7]; male, cynomolgus monkey): 0.513 | Formation Rate (CYP2C9): 650 pmol metabolite/min/mg Supersome protein | Measured Metabolite (CYP2C9): 0.676 µM

SMILES: C[C@H]1O[C@@H](O[C@H]2[C@@H](O)C[C@H](O[C@H]3[C@@H](O)C[C@H](O[C@H]4CC[C@@]5(C)[C@H](CC[C@@H]6[C@@H]5C[C@@H](O)[C@]5(C)[C@@H](C7=CC(=O)OC7)CC[C@]65O)C4)O[C@@H]3C)O[C@@H]2C)C[C@H](O)[C@@H]1O [Digoxin, digoxin]
Recovery (%) (P-GP [8]): 79.9% | Papp A→B at 120 min (P-GP [9]): 0.344 ×10⁻⁶ cm/s | Papp B→A at 120 min (P-GP [9]): 10.5 ×10⁻⁶ cm/s | recovery at 120 min (P-GP [9]): 73.4% | Papp B→A at 120 min (P-GP [10]): 10.4 ×10⁻⁶ cm/s | recovery at 120 min (P-GP [10]): 77.6% | recovery at 120 min, 10 µM (P-GP [11]; Caco-2, pH 7.4, % Recovery): 95.4% | Papp B→A at 120 min, 10 μM (P-GP [11]; Caco-2, pH 7.4, Papp AVG): 10.9 ×10⁻⁶ cm/s | Papp A→B at 120 min, 10 μM (P-GP [11]; Caco-2, pH 7.4, Papp R1): 0.344 ×10⁻⁶ cm/s | Papp A→B at 120 min, 10 μM (P-GP [11]; Caco-2, pH 7.4, Papp R2): 0.645 ×10⁻⁶ cm/s | Papp B→A at 120 min, 10 μM (P-GP [11]; Caco-2, pH 7.4, Papp R2): 10.5 ×10⁻⁶ cm/s | recovery at 120 min, 10 µM (P-GP [11]; Caco-2, pH 7.4, Recovery (%)): 73.4% | Papp A→B (in vitro [12]): 0.511 ×10⁻⁶ cm/s | Papp A→B at 120 min (P-gp [13]): 0.403 ×10⁻⁶ cm/s | Papp B→A at 120 min (P-gp [13]): 8.93 ×10⁻⁶ cm/s | Papp B→A (P-gp (MDR1)): 11 ×10⁻⁶ cm/s | Papp A→B at 120 min (P-gp [14]): 0.0792 ×10⁻⁶ cm/s | P-gp Substrate Classification (P-GP [15]; Digoxin): Positive | Recovery (%) (P-GP [15]; Digoxin + 1 μM Valspodar, A-to-B): 72.2% | Recovery (%) (P-GP [15]; Digoxin + 1 μM Valspodar, B-to-A): 95.3% | Papp AVG (P-GP [15]; Digoxin, A-to-B): 0.494 10^−6 cm/s | Papp AVG (P-GP [15]; Digoxin, B-to-A): 10.9 10^−6 cm/s | Papp R1 (P-GP [15]; Digoxin, B-to-A): 11.4 10^−6 cm/s | Recovery (%) (P-GP [15]; Digoxin, B-to-A): 79.9% | P-gp Substrate Classification (P-GP [16]; Digoxin): Positive | Recovery (%) (P-GP [16]; Digoxin + 1 μM Valspodar): 85.9% | Papp AVG (P-GP [16]; Digoxin, A-to-B): 0.0321 10^−6 cm/s | Papp R1 (P-GP [16]; Digoxin, A-to-B): 0.0436 10^−6 cm/s | Recovery (%) (P-GP [16]; Digoxin): 74.9%

SMILES: CC[C@@]1(c2ccccc2)NC(=O)N(C)C1=O [S-mephenytoin]
Formation Rate [19]: 0 pmol metabolite/min/mg Supersome protein | Measured Metabolite [19]: 0 µM
